PMC7909954 (eLife, 2021)
Like-named read-outs stand apart in the source and are kept apart here.

What was measured:
[1] = molecular target: T1, MOR (Homo sapiens, UniProt P35372); assay: cell-based
[2] = molecular target: T2, mDOR (Mus musculus, UniProt P32300); assay: biochemical; details: read-out: Emax mDOR [35S]GTPγS
[3] = molecular target: T3, KOR (Homo sapiens, UniProt P41145); assay: cell-based
[4] = molecular target: T4, mMOR (Mus musculus, UniProt P42866); assay: cell-based
[5] = molecular target: T3, KOR; assay: cell-based; remark: listed apart in the source
[6] = molecular target: T5, Y312W-hKOR (Homo sapiens, UniProt P41145, Y312W)
T5 sequence (P41145 whole entry Y312W): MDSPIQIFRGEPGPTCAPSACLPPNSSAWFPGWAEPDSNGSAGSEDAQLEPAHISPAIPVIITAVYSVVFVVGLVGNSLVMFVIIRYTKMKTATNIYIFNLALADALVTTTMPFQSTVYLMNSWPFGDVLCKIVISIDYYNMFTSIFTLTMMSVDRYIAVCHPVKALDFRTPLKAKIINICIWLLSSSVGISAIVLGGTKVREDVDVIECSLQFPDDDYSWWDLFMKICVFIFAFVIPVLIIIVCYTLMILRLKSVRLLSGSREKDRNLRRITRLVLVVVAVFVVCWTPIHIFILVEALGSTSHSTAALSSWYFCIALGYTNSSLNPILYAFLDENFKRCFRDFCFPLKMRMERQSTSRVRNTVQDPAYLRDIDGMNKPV

[7] = molecular target: T5, Y312W-hKOR; assay: cell-based; details: read-out: Emax% cAMP inhibition Y312W-hKOR
[8] = molecular target: T1, MOR
[9] = molecular target: T1, MOR; assay: cell-based; remark: listed apart in the source
[10] = molecular target: T4, mMOR; assay: biochemical
[11] = molecular target: T6, mKOR (Mus musculus, UniProt P33534); assay: biochemical
T6 sequence (P33534 whole entry): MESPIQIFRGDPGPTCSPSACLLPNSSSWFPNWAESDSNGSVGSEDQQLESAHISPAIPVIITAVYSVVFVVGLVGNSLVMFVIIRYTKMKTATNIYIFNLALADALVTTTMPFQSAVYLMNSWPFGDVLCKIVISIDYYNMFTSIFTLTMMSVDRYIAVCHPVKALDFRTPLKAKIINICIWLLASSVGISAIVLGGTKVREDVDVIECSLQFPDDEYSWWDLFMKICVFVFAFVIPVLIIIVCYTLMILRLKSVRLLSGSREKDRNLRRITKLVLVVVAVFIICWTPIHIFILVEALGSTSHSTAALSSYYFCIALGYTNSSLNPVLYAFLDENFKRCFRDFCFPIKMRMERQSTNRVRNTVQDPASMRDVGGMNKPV

[12] = molecular target: T2, mDOR; assay: cell-based
[13] = molecular target: T3, KOR
[14] = molecular target: T5, Y312W-hKOR; assay: cell-based
[15] = molecular target: T6, mKOR; assay: biochemical; remark: listed apart in the source
[16] = molecular target: T2, mDOR; assay: cell-based; remark: listed apart in the source
[17] = molecular target: T7, rKOR (Rattus norvegicus, UniProt P34975); assay: cell-based; details: HEK-293T, read-out: Emax% G protein activation (BRET) rKOR
T7 sequence (P34975 whole entry): as the sequence (P33534 whole entry) above, with D11E, S17A, S51P, A308V counted along it

[18] = molecular target: T4, mMOR; assay: biochemical; remark: listed apart in the source
[19] = molecular target: T7, rKOR
[20] = molecular target: T8, DOR (Homo sapiens, UniProt P41143); assay: cell-based
T8 sequence (P41143 whole entry): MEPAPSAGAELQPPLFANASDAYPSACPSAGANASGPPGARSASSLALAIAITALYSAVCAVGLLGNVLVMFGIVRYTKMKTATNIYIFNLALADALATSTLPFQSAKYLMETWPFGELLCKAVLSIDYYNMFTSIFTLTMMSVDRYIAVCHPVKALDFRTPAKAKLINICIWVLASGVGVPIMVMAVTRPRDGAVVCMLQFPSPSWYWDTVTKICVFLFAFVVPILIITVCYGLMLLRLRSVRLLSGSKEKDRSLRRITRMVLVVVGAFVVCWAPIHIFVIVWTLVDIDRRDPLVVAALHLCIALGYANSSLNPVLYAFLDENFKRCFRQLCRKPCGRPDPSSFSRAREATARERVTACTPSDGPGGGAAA

[21] = molecular target: T7, rKOR; assay: cell-based; details: HEK-293T, read-out: Emax% arrestin recruitment (BRET) rKOR
[22] = molecular target: T4, mMOR
[23] = molecular target: T4, mMOR; assay: cell-based; design: expressed in transfected cells; host or cells: HEK-293T
[24] = molecular target: T8, DOR; assay: cell-based; remark: listed apart in the source
[25] = transduction coefficient log(T/KA)

T4 sequence (P42866 whole entry): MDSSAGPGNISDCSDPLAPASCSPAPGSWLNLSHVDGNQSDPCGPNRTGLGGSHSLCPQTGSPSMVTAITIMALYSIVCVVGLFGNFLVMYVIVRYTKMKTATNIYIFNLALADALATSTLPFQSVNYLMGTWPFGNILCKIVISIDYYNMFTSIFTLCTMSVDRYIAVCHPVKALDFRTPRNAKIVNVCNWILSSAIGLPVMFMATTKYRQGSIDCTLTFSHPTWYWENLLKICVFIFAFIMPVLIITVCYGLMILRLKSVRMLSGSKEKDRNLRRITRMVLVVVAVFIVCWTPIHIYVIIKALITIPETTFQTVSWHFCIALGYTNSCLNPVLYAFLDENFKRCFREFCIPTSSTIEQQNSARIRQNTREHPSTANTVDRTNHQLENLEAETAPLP
T2 sequence (P32300 whole entry): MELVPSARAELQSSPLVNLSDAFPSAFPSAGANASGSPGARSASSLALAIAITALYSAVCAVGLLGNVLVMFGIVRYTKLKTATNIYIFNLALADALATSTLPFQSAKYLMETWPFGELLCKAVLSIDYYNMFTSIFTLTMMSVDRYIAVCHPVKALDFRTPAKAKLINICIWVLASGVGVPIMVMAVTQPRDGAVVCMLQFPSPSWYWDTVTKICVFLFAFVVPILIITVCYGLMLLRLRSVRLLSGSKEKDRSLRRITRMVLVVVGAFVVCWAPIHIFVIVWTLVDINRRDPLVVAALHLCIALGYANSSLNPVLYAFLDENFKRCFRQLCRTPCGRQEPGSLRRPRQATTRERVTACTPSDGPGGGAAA
T3 sequence (P41145 whole entry): as the sequence (P41145 whole entry Y312W) above, with W312Y counted along it
T1 sequence (P35372 whole entry): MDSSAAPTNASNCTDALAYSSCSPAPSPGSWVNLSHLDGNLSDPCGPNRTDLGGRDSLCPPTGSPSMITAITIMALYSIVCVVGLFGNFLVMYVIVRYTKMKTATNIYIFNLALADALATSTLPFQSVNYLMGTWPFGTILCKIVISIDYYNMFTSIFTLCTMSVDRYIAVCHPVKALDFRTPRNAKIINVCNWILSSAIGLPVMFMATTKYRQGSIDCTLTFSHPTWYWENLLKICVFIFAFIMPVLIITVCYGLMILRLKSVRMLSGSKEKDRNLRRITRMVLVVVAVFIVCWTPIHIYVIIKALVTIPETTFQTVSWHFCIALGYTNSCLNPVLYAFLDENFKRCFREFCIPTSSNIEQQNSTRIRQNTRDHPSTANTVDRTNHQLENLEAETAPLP

`O=C(N[C@@H]1CCC2C3Cc4ccc(O)c5c4[C@@]2(CCN3CC2CC2)C1O5)c1cccc(I)c1` (stereo partly drawn) [MP1202, N-((7R,12bS)−3-(Cyclopropylmethyl)−9-hydroxy-2,3,4,4a,5,6,7,7a-octahydro-1H-4,12-methanobenzofuro[3,2-e]isoquinolin-7-yl)−3-iodobenzamide] gave an EC50 [1] of 26.8 nM, an Emax ([1]; HTLA, read-out: Emax% arrestin recruitment (Tango) hMOR) of 53 ± 2% and an Emax [2] of 71 ± 2%. It also gave an EC50 ([3]; EC50 arrestin recruitment (Tango) hKOR) of 0.0457 nM, an Emax ([3]; HTLA, read-out: Emax% arrestin recruitment (Tango) hKOR) of 101 ± 1% and an EC50 ([4]; EC50 G protein activation (BRET) mMOR) of 0.63 nM. For the same molecule, the Emax ([4]; HEK-293T, read-out: Emax% G protein activation (BRET) mMOR) was 70%, the EC50 ([5]; EC50 cAMP inhibition hKOR) was 0.00139 nM and the Emax ([5]; HEK-293T, read-out: Emax% cAMP inhibition hKOR) was 97.9 ± 2.5%. For the same molecule, the “Log RA cAMP Y312W-hKOR” value [6] was 10.63±0.005, the “LogRA Tango Y312W-hKOR” value [6] was 8.091±0.051 and the “ΔΔlog RA (cAMP-Tango) Y312W-hKOR” value [6] was 1.53±0.073. For the same molecule, the “Bias factor (cAMP-Tango) Y312W-hKOR” value ([6]; vs U50,488h) was 34, the “ΔlogRA Tango Y312W-hKOR” value ([6]; vs U50,488h) was 0.532±0.073 and the “ΔlogRA cAMP Y312W-hKOR” value ([6]; vs U50,488h) was 2.062±0.007. For the same molecule, the Emax [7] was 101 ± 1.5%, the “Bias factor (cAMP-Tango) hMOR” value [8] was 31 and the “Log RA cAMP hMOR” value [8] was 9.99±0.012. For the same molecule, the “LogRA Tango hMOR” value [8] was 7.24±0.002, the “ΔlogRA Tango hMOR” value [8] was 0.058±0.002 and the “ΔlogRA cAMP hMOR” value [8] was 1.55±0.016. For the same molecule, the “ΔΔlog RA (cAMP-Tango) hMOR” value [8] was 1.49±0.016, the EC50 ([9]; EC50 cAMP inhibition hMOR) was 0.077 nM and the Emax ([9]; HEK-293T, read-out: Emax% cAMP inhibition hMOR) was 92 ± 1.4%. It also gave an EC50 ([10]; EC50 mMOR [35S]GTPγS, ± SEM) of 0.32 ± 0.03 nM, an Emax ([10]; read-out: Emax mMOR [35S]GTPγS) of 68 ± 1% and an EC50 ([11]; EC50 mKOR [35S]GTPγS, ± SEM) of 0.13 ± 0.02 nM. For the same molecule, the Emax ([11]; read-out: Emax mKOR [35S]GTPγS) was 94 ± 5%, the EC50 ([12]; EC50 G protein activation (BRET) mDOR) was 7.03 nM and the Emax ([12]; HEK-293T, read-out: Emax% G protein activation (BRET) mDOR) was 103 ± 4.6%. The EC50 ([12]; pEC50 G protein activation (BRET) mDOR, ± SEM) was 7.94 nM, the “ΔΔlog RA (cAMP-Tango) hKOR” value [13] was -0.19±0.072 and the “Log RA cAMP hKOR” value [13, 25] was 11.88±0.050. For the same molecule, the “LogRA Tango hKOR” value [13, 25] was 10.30±0.004, the “ΔlogRA Tango hKOR” value ([13]; vs U50,488h) was 1.856±0.006 and the “ΔlogRA cAMP hKOR” value ([13]; vs U50,488h) was 1.66±0.072. It also gave an EC50 [14] of 3.4 nM, an Emax ([14]; read-out: Emax% arrestin recruitment (Tango) Y312W-hKOR) of 55 ± 2.6% and a Ki [15] of 0.11 ± 0.064 nM. The EC50 ([16]; EC50 arrestin recruitment (BRET) mDOR) was 525 nM, the Emax ([16]; HEK-293T, read-out: Emax% arrestin recruitment (BRET) mDOR) was 26 ± 2.3% and the Emax [17] was 104 ± 2%. For the same molecule, the Ki [18] was 0.071 ± 0.031 nM, the “Log RA BRET-G rKOR” value [19] was 9.906±0.088 and the “LogRA BRET-Arr rKOR” value [19] was 8.791±0.171. The “ΔΔlog RA (BRETG-BRETArr) rKOR” value [19] was -0.399±0.27, the “ΔlogRA BRET-G rKOR” value ([19]; vs U50,488h) was 1.594±0.117 and the “ΔlogRA BRET-arr rKOR” value ([19]; vs U50,488h) was 1.993±0.239. It also gave an EC50 ([20]; EC50 arrestin recruitment hDOR, Tango) of 18.1 nM, an Emax ([20]; HTLA, read-out: Emax% arrestin recruitment hDOR) of 26 ± 3.1% and an Emax [21] of 77 ± 5%. For the same molecule, the “Emax% G protein activation (BRET) mMOR” value [22] was 61±1.5%, the EC50 [23] was 3140 nM and the “Emax% arrestin recruitment (BRET) mMOR” value [23] was 53 ± 1.6%. It also gave an Emax ([23]; HEK-293T, read-out: Emax% arrestin recruitment (BRET) mMOR) of 57%, an EC50 ([24]; EC50 cAMP inhibition hDOR) of 8.18 nM and an Emax ([24]; HEK-293T, read-out: Emax% cAMP inhibition hDOR) of 99 ± 2.2%.
